Data as given in article PMC9424684, “Z1456467176 alleviates gouty arthritis by allosterically modulating P2X7R to inhibit NLRP3 inflammasome activation” (Frontiers in Pharmacology, 2022).
pIC50: −log10 of the molar value. Counter-ions that a name gives are not always drawn.

Target: T1, hP2X7R (purinergic receptor P2X7, P2X7R) (Homo sapiens, UniProt Q99572)
T1 construct: gene P2RX7; homotrimer
T1 sequence (Q99572 1-595): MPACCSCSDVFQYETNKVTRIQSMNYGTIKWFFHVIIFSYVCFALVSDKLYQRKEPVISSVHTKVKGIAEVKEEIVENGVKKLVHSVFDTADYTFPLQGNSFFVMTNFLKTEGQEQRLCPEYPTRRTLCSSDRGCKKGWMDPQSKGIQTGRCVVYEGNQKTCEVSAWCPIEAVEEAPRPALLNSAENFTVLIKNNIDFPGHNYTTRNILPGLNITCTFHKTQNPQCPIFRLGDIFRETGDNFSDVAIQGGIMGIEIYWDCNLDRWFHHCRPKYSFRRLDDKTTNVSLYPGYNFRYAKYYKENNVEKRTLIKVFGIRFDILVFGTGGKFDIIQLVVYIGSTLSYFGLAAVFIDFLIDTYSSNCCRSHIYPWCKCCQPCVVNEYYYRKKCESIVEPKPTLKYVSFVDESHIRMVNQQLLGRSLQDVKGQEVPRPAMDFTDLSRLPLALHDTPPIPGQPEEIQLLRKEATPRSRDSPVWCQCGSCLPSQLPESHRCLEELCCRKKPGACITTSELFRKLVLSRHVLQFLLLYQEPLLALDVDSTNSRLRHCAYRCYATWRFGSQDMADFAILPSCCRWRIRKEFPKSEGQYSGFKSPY
Test: ethidium bromide uptake (pore formation), flow cytometry, HEK-293T cells
Assay type: cell-based
Conditions: read-out: EB uptake IC50

pIC50: 5.47
SMILES: CC(Cc1cccc(C(F)(F)F)c1)C(=O)Nc1cccc(S(=O)(=O)NCCN)c1 (stereo not shown) [Z1456467176, N-{3-[(2-aminoethyl)sulfamoyl]phenyl}-2-methyl-3-[3-(trifluoromethyl)phenyl] propanamide hydrochloride]
